Measurements published in patent US11247965B2 (VenatoRx Pharmaceuticals, Inc., priority 2017, dated 2022).

Key:
[1] = test system: HBV replication in HepAD38 cells; experiment: Anti-HBV activity in HepAD38 cells, extracellular HBV DNA by QPCR; assay type: cell-based, HBV (genotype D, serotype ayw); conditions: Hepatitis B virus, HePAD38, 168 h, read-out: Anti-HBV EC50, HepAD38 cells, extracellular HBV DNA by QPCR, 7 days of incubation
Method in brief: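 HepAD38 cells (HepG2 with tet-repressible HBV genotype D genome) seeded overnight, tetracycline removed, then treated 7 days with compounds (half-log dilutions, 30 μM–10 nM; 1:200 from DMSO). Supernatant HBV DNA quantified by QPCR against standard curve; % inhibition vs vehicle, EC50 by 4-parameter fit.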

[2] = In vitro cytotoxicity, MTT cell viability assay in HepG2 cells; assay type: cell-based; conditions: human, Cytotoxicity CC50
Method in brief: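 Read-out: MTT formazan absorbance at 492 nm, expressed as % of vehicle signal; CC50 by 4-parameter non-linear regression. Parental HepG2, 20,000 cells/well, treated 7 days with compound from 30 μM down to 1.0 nM.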

Row | SMILES | EC50 [1] [µM] | CC50 at 7 days [2] [µM]
1 | Cc1cc(NC(=O)c2cc(C(O)(C(=O)NC(C)(C)C)C(C)C)cn2C)ccc1F (centres unmarked) [Example 124, 4-(1-(tert-butylamino)-2-hydroxy-3-methyl-1-oxobutan-2-yl)-N-(4-fluoro-3-methylphenyl)-1-methyl-1H-pyrrole-2-carboxamide] | 5 to 30 | > 30
2 | Cc1cc(NC(=O)c2cc(C(F)(F)C(=O)N[C@H]3CC[C@@H](O)CC3)n(C)c2)ccc1F [Example 125, 5-(1,1-difluoro-2-(((1s,4s)-4-hydroxycyclohexyl)amino)-2-oxoethyl)-N-(4-fluoro-3-methylphenyl)-1-methyl-1H-pyrrole-3-carboxamide] | < 5 | > 30
3 | Cc1cc(NC(=O)c2ccn(C)c2C(F)(F)C(=O)NC2CCC(O)CC2)ccc1F (centres unmarked) [Example 126, 2-(1,1-difluoro-2-(((1s,4s)-4-hydroxycyclohexyl)amino)-2-oxoethyl)-N-(4-fluoro-3-methylphenyl)-1-methyl-1H-pyrrole-3-carboxamide] | 5 to 30 | > 30
4 | Cc1cc(NC(=O)c2cc(C(F)(F)C(=O)N[C@@H]3CCCC[C@H]3O)n(C)c2)ccc1F [Example 127, 5-(1,1-difluoro-2-(((1R,2R)-2-hydroxycyclohexyl)amino)-2-oxoethyl)-N-(4-fluoro-3-methylphenyl)-1-methyl-1H-pyrrole-3-carboxamide] | < 5 | > 30
5 | Cc1cc(NC(=O)c2ccn(C)c2C(F)(F)C(=O)N[C@@H]2CCCC[C@H]2O)ccc1F [Example 128, 2-(1,1-difluoro-2-(((1R,2R)-2-hydroxycyclohexyl)amino)-2-oxoethyl)-N-(4-fluoro-3-methylphenyl)-1-methyl-1H-pyrrole-3-carboxamide] | 5 to 30 | > 30
6 | Cc1cc(NC(=O)c2cn(C)c(C(F)(F)C(=O)NC(C)(C)CO)c2C)ccc1F [Example 129, 5-(1,1-difluoro-2-((1-hydroxy-2-methylpropan-2-yl)amino)-2-oxoethyl)-N-(4-fluoro-3-methylphenyl)-1,4-dimethyl-1H-pyrrole-3-carboxamide] | < 5 | > 30
7 | Cc1cc(NC(=O)c2c(C)c(C(O)(C(=O)NC(C)(C)C)C(F)(F)F)c(C)n2C)ccc1F (centres unmarked) [Example 131, 4-(3-(tert-butylamino)-1,1,1-trifluoro-2-hydroxy-3-oxopropan-2-yl)-N-(4-fluoro-3-methylphenyl)-1,3,5-trimethyl-1H-pyrrole-2-carboxamide] | 5 to 30 | 5 to 30
8 | COCC(C)(C)NC(=O)C(F)(F)c1cc(C(=O)Nc2ccc(F)c(C)c2)cn1C [Example 132, 5-(1,1-difluoro-2-((1-methoxy-2-methylpropan-2-yl)amino)-2-oxoethyl)-N-(4-fluoro-3-methylphenyl)-1-methyl-1H-pyrrole-3-carboxamide] | < 5 | > 30
9 | Cc1cc(NC(=O)c2cc(C(F)(F)C(=O)NC3(C)CCCOC3)n(C)c2)ccc1F (centres unmarked) [Example 133, 5-(1,1-difluoro-2-((3-methyltetrahydro-2H-pyran-3-yl)amino)-2-oxoethyl)-N-(4-fluoro-3-methylphenyl)-1-methyl-1H-pyrrole-3-carboxamide] | < 5 | > 30
10 | CCn1cc(C(=O)Nc2ccc(F)c(C)c2)cc1C(F)(F)C(=O)NC(C)(C)C [Example 134, 5-(2-(tert-butylamino)-1,1-difluoro-2-oxoethyl)-1-ethyl-N-(4-fluoro-3-methylphenyl)-1H-pyrrole-3-carboxamide] | < 5 | > 30
11 | CCn1ccc(C(=O)Nc2ccc(F)c(C)c2)c1C(F)(F)C(=O)NC(C)(C)C [Example 135, 2-(2-(tert-butylamino)-1,1-difluoro-2-oxoethyl)-1-ethyl-N-(4-fluoro-3-methylphenyl)-1H-pyrrole-3-carboxamide] | 5 to 30 | > 30
12 | CCC(C)NC(=O)C(F)(F)c1cc(C(=O)Nc2ccc(F)c(Cl)c2)cn1C (centres unmarked) [Example 136, 5-(2-(sec-butylamino)-1,1-difluoro-2-oxoethyl)-N-(3-chloro-4-fluorophenyl)-1-methyl-1H-pyrrole-3-carboxamide] | 5 to 30 | > 30
13 | Cn1ccc(C(=O)Nc2ccc(F)c(Cl)c2)c1C(F)(F)C(=O)NC(C)(C)C [Example 137, 2-(2-(tert-butylamino)-1,1-difluoro-2-oxoethyl)-N-(3-chloro-4-fluorophenyl)-1-methyl-1H-pyrrole-3-carboxamide] | < 5 | > 30
14 | Cn1cc(C(=O)Nc2ccc(F)c(Cl)c2)cc1C(F)(F)C(=O)NCCO [Example 138, N-(3-chloro-4-fluorophenyl)-5-(1,1-difluoro-2-((2-hydroxyethyl)amino)-2-oxoethyl)-1-methyl-1H-pyrrole-3-carboxamide] | 5 to 30 | > 30
15 | C[C@H](NC(=O)C(F)(F)c1cc(C(=O)Nc2ccc(F)c(Cl)c2)cn1C)C(F)(F)F [Example 140, (S)-N-(3-chloro-4-fluorophenyl)-5-(1,1-difluoro-2-oxo-2-((1,1,1-trifluoropropan-2-yl)amino)ethyl)-1-methyl-1H-pyrrole-3-carboxamide] | < 5 | > 30
16 | C[C@H](NC(=O)C(F)(F)c1c(C(=O)Nc2ccc(F)c(Cl)c2)ccn1C)C(F)(F)F [Example 141] | 5 to 30 | > 30
17 | Cn1cc(C(=O)Nc2ccc(F)c(Cl)c2)cc1C(F)(F)C(=O)N[C@@H]1CCOC1 [Example 142, (R)-N-(3-chloro-4-fluorophenyl)-5-(1,1-difluoro-2-oxo-2-((tetrahydrofuran-3-yl)amino)ethyl)-1-methyl-1H-pyrrole-3-carboxamide] | < 5 | > 30
18 | Cn1ccc(C(=O)Nc2ccc(F)c(Cl)c2)c1C(F)(F)C(=O)N[C@@H]1CCOC1 [Example 143, (R)-N-(3-chloro-4-fluorophenyl)-2-(1,1-difluoro-2-oxo-2-((tetrahydrofuran-3-yl)amino)ethyl)-1-methyl-1H-pyrrole-3-carboxamide] | 5 to 30 | > 30
19 | Cn1cc(C(=O)Nc2ccc(F)c(Cl)c2)cc1C(F)(F)C(=O)NOC(C)(C)C [Example 144, 5-(2-(tert-butoxyamino)-1,1-difluoro-2-oxoethyl)-N-(3-chloro-4-fluorophenyl)-1-methyl-1H-pyrrole-3-carboxamide] | < 5 | > 30
20 | Cn1ccc(C(=O)Nc2ccc(F)c(Cl)c2)c1C(F)(F)C(=O)NOC(C)(C)C [Example 145, 2-(2-(tert-butoxyamino)-1,1-difluoro-2-oxoethyl)-N-(3-chloro-4-fluorophenyl)-1-methyl-1H-pyrrole-3-carboxamide] | 5 to 30 | > 30
21 | Cn1cc(C(=O)Nc2ccc(F)c(Cl)c2)cc1C(F)(F)C(=O)NC1(C#N)CC1 [Example 146, N-(3-chloro-4-fluorophenyl)-5-(2-((1-cyanocyclopropyl)amino)-1,1-difluoro-2-oxoethyl)-1-methyl-1H-pyrrole-3-carboxamide] | < 5 | > 30
22 | Cn1ccc(C(=O)Nc2ccc(F)c(Cl)c2)c1C(F)(F)C(=O)NC1(C#N)CC1 [Example 147, N-(3-chloro-4-fluorophenyl)-2-(2-((1-cyanocyclopropyl)amino)-1,1-difluoro-2-oxoethyl)-1-methyl-1H-pyrrole-3-carboxamide] | 5 to 30 | > 30
23 | Cc1cc(NC(=O)c2ccc(Cl)c(C(F)(F)C(=O)N3CCC(B(O)O)CC3)c2)ccc1F [Example 148, (1-(2-(2-chloro-5-((4-fluoro-3-methylphenyl)carbamoyl)phenyl)-2,2-difluoroacetyl)piperidin-4-yl)boronic acid] | < 5 | > 30
24 | Cc1cc(NC(=O)c2ccc(F)c(C(F)(F)C(=O)NCB3O[C@@H]4C[C@@H]5C[C@@H](C5(C)C)[C@]4(C)O3)c2)ccc1F [Example 149, 3-(1,1-difluoro-2-oxo-2-((((3aS,4S,6S,7aR)-3a,5,5-trimethylhexahydro-4,6-methanobenzo[d][1,3,2]dioxaborol-2-yl)methyl)amino)ethyl)-4-fluoro-N-(4-fluoro-3-methylphenyl)benzamide] | < 5 | 5 to 30
25 | Cc1cc(NC(=O)c2ccc(F)c(C(F)(F)C(=O)N[C@H]3CCOB3O)c2)ccc1F [Example 150, (R)-3-(1,1-difluoro-2-((2-hydroxy-1,2-oxaborolan-3-yl)amino)-2-oxoethyl)-4-fluoro-N-(4-fluoro-3-methylphenyl)benzamide] | < 5 | > 30
26 | Cc1cc(NC(=O)c2ccc(F)c(C(Cl)(Cl)C(=O)N3CC=C(B(O)O)CC3)c2)ccc1F [Example 151, (1-(2,2-dichloro-2-(2-fluoro-5-((4-fluoro-3-methylphenyl)carbamoyl)phenyl)acetyl)-1,2,3,6-tetrahydropyridin-4-yl)boronic acid] | < 5 | > 30
27 | Cc1cc(NC(=O)c2ccc(F)c(C(F)(F)C(=O)N3CCC(B(O)O)CC3)c2)ccc1F [Example 152, (1-(2,2-difluoro-2-(2-fluoro-5-((4-fluoro-3-methylphenyl)carbamoyl)phenyl)acetyl)piperidin-4-yl)boronic acid] | < 5 | 5 to 30
28 | Cc1cc(NC(=O)c2ccc(F)c(C(F)(F)C(=O)N3CCC[C@H]3B(O)O)c2)ccc1F [Example 153, (R)-(1-(2,2-difluoro-2-(2-fluoro-5-((4-fluoro-3-methylphenyl)carbamoyl)phenyl)acetyl)pyrrolidin-2-yl)boronic acid] | < 5 | > 30
